In patent publication US10869931B2, “Polyethylene glycol-modified angiogenesis inhibitor HM-1 and application thereof” (NANJING ANJI BIOLOGICAL TECHNOLOGY CO.,LTD, priority 2016, dated 2020):
Where no end group is shown, it is not given here.

Key:
[1] = system: Lung cancer tumor cells; test: MTT proliferation inhibition, lung cancer cells; assay type: cell-based, human; design: concentration or dose not given beside the values; conditions: 48 h
Procedure: (§1) The activity of mPEG-HM-1 to inhibit the growth of various tumor cells was examined by MTT assay. The tumor cells were cultured to a concentration of 90% or more in a 37° C., 5% CO2 incubator and collected by trypsinization. The cells were resuspended in the culture medium and counted under a microscope to adjust the cell concentration to 2×10^4 cells/mL, the cell suspension was inoculated into a 96-well plate at 100 μL/well and incubated overnight at 37° C. in a 5% CO2 incubator. mPEG-HM-1 was diluted with the culture solution to each predetermined concentration. Docetaxel is diluted to the final concentration with the culture medium. After the cells were fully attached, each dilution was added to a 96-well plate (100 μL/well). The mPEG-HM-1 dilution was added as a drug-administered group, and docetaxel was added as a positive control group, and a culture solution without any drug was used as a negative control group. Incubate for 48 h at 37° C. in a 5% CO2 incubator. 5 mg/mL of MTT was added to a 96-well plate at 20 μL per well, and incubation was continued for 4 hours. The medium was aspirated, dissolved in 150 μL of DMSO per well, and gently mixed by shaking for 10 min. The absorbance was measured at a measurement wavelength of 570 nm and a reference wavelength of 630 nm using a microplate reader, and the rate of growth inhibition (proliferation inhibition, PI) was calculated. The formula is as follows: PI (%)=1−administration group/negative group
(§2) The test was repeated 3 times independently, and the results obtained by the test were expressed as mean±SD, and the test results are shown in Table 15 to Table 18.

[2] = system: Cervical cancer tumor cells; test: MTT proliferation inhibition, cervical cancer cells; assay type: cell-based, human; design: concentration or dose not given beside the values; conditions: 48 h
Procedure: as §1, §2

[3] = system: Liver cancer tumor cells; test: MTT proliferation inhibition, liver cancer cells; assay type: cell-based, human; design: concentration or dose not given beside the values; conditions: 48 h
Procedure: as §1, §2

[4] = system: Esophageal cancer tumor cells; test: MTT proliferation inhibition, esophageal cancer cells; assay type: cell-based, human; design: concentration or dose not given beside the values; conditions: 48 h
Procedure: as §1, §2

[5] = system: Head and neck cancer tumor cells; test: MTT proliferation inhibition, head and neck cancer cells; assay type: cell-based, human; design: concentration or dose not given beside the values; conditions: 48 h
Procedure: as §1, §2

[6] = system: Kidney cancer tumor cells; test: MTT proliferation inhibition, kidney cancer cells; assay type: cell-based, human; design: concentration or dose not given beside the values; conditions: 48 h
Procedure: as §1, §2

[7] = system: Hemangioma tumor cells; test: MTT proliferation inhibition, hemangioma cells; assay type: cell-based, human; design: concentration or dose not given beside the values; conditions: 48 h
Procedure: as §1, §2

[8] = in vivo
[9] = system: Breast cancer tumor cells; test: MTT proliferation inhibition, breast cancer cells; assay type: cell-based, human; design: concentration or dose not given beside the values; conditions: 48 h
Procedure: as §1, §2

[10] = system: IL-1β production by mouse peritoneal macrophages; test: IL-1β production by mouse peritoneal macrophages (ELISA); assay type: cell-based; conditions: 48 h
Procedure: (1) IL-1β production: mice were intraperitoneally injected with 1 mL of broth (containing 6%) starch, and three days later, the mouse peritoneal macrophages were aseptically taken, washed twice with 1640 medium, and the cell concentration was adjusted to 2×10^6 cells/mL, inject into a 24-well culture plate, 1 mL per well, incubate for 3 hours in a cell culture incubator, shake once every 30 minutes, and allow the cells to fully adhere. Then, it was washed twice with the culture solution to remove unattached cells. The blank group was added with PBS, the positive group was added with the positive drug dexamethasone (Dex), the model group was not administered, to the experimental group was added low, medium and high three concentrations of mPEG-HM-1, and the culture was continued for 48 hours after the administration, 1000 r/min. Centrifuge for 15 min. The supernatant was taken as a sample for testing activity of IL-1β.
(2) Determination of IL-1β content: using R&D mouse IL-1β enzyme-linked immunosorbent assay kit, according to the kit instructions as follows: respectively, the tested samples and different concentrations of standard products, sealed with sealing tape the reaction well and incubated at 37° C. for 90 min; the plate was washed four times; the biotinylated antibody working solution (100 μL/well) was added, and the reaction well was sealed with sealing paper, incubated at 37° c. for 60 min; the plate was washed four times; Add the enzyme conjugate working solution (100 μL/well), seal the reaction well with sealing paper, incubate at 37° C. for 30 min; wash the plate four times; add color reagent (100 μL/well), incubate at 37° C. 10-20 min, add stop solution (100 μL/well), mix and measure OD450 value.

[11] = system: Uterine cancer tumor cells; test: MTT proliferation inhibition, uterine cancer cells; assay type: cell-based, human; design: concentration or dose not given beside the values; conditions: 48 h
Procedure: as §1, §2

[12] = system: Prostate cancer tumor cells; test: MTT proliferation inhibition, prostate cancer cells; assay type: cell-based, human; design: concentration or dose not given beside the values; conditions: 48 h
Procedure: as §1, §2

[13] = system: neovascularization in rat model of premature retinopathy; test: Fluctuating-oxygen rat model of premature retinopathy (endothelial nuclei count); assay type: in vivo; conditions: day 14
Procedure: A fluctuating oxygen-induced animal model was used to randomly divide the newborn rats that were naturally delivered on the same day (within 12 hours) into three groups: the oxygenated model group, the oxygenated treatment group, and the normal control group. The oxygenated model group was subdivided into three subgroup models and along with the oxygenated treatment group was placed in a semi-closed oxygen chamber made of plexiglass. The chamber was connected to medical oxygen, and the oxygen analyzer was adjusted to a concentration of 80%±2%. After 24 hours, Nitrogen gas was introduced into the oxygen chamber, and the oxygen concentration was adjusted to 10%±2% and maintained for 24 h. This process was repeated, so that the oxygen concentration in the oxygen chamber is switched between 80% and 10% every 24 hours, and then transferred to the air for 7 days. The oxygen concentration was monitored 8 times a day, and the ambient temperature in the control cabin was 23° C.±2° C. Bedding change, adding food, changing water and replacing mother rats were performed once a day. The normal control group was placed in an animal facility environment. […] The oxygenated therapeutic components were divided into four subgroups, and on the 7th day of modeling, mPEG-SC-HM-1, mPEG2-NHS-HM-1, mPEG-ALD10k-HM-1, and mPEG-bALD-HM-1 were respectively administered by intravitreal injection. Only normal saline was administered to the oxygen model group and the control group. The administrations continued for 1 week. […] After immersion in wax, serial section at thickness of 4 μm was performed, wherein the sections were kept away from the optic disc. The sections are parallel to the sagittal plane of the cornea to the optic disc. Ten sections per eyeball were randomly selected from each eyeball to be stained with hematoxylin and eosin, and the number of vascular endothelial cells that broke through the retinal inner membrane was counted (only the vascular endothelial nucleus closely related to the inner retinal membrane was counted), and the average numbers of endothelial cells per eyeball per slice was counted.

[14] = 25 μg intravitreal for 1 week from day 7, vascular endothelial nuclei breaking through inner retinal membrane per slice

| Substance | rate of growth inhibition [1] [%] | rate of growth inhibition [2] [%] | rate of growth inhibition [3] [%] | rate of growth inhibition [4] [%] | rate of growth inhibition [5] [%] | rate of growth inhibition [6] [%] | rate of growth inhibition [7] [%] | AUC0-∞ [8] [mg/L/h] | CL [8] [mL/min/kg] | MRT0-∞ [8] [h] | T1/2β (half-life) [8] [h] | rate of growth inhibition [9] [%] | IL-1β ([10]; 10 μg/mL) [pg/mL] | Inhibition Rate of IL-1β production ([10]; 10 μg/mL) [%] | IL-1β ([10]; 20 μg/mL) [pg/mL] | Inhibition Rate of IL-1β production ([10]; 20 μg/mL) [%] | rate of growth inhibition [11] [%] | rate of growth inhibition [12] [%] | IL-1β ([10]; 40 μg/mL) [pg/mL] | Inhibition Rate of IL-1β production ([10]; 40 μg/mL) [%] | other results |
| --- | --- | --- | --- | --- | --- | --- | --- | --- | --- | --- | --- | --- | --- | --- | --- | --- | --- | --- | --- | --- | --- |
| mPEG2-NHS5k-Arg-Gly-Ala-Asp-Arg-Ala-Gly-Gly-Gly-Gly-Arg-Gly-Asp ({mPEG2‑NHS 5 kDa}-RGADRAGGGGRGD) [mPEG2-NHS5k-HM-1] | 42.83 ± 12.58 | 49.15 ± 14.23 | 50.92 ± 11.66 | 41.35 ± 11.32 | 37.13 ± 11.32 | 47.52 ± 11.48 | 42.78 ± 12.50 | 4789.25 ± 12.08 | 0.878 ± 0.187 | 8.02 ± 5.04 | 8.85 ± 0.10 | 45.69 ± 12.10 | 681.45 ± 12.09 | 26.42 | 563.37 ± 13.21 | 39.17 | 55.20 ± 15.63 | 39.33 ± 12.01 |  |  | IL-1β ([10]; 5 μg/mL): 763.97 ± 15.46 pg/mL; Inhibition Rate of IL-1β production ([10]; 5 μg/mL): 17.51%; Cell nuclei count [13, 14]: 9.212 ± 3.134 |
| mPEG2-NHS10k-Arg-Gly-Ala-Asp-Arg-Ala-Gly-Gly-Gly-Gly-Arg-Gly-Asp ({mPEG2‑NHS 10 kDa}-RGADRAGGGGRGD) [mPEG2-NHS10k-HM-1] | 45.28 ± 13.96 | 54.82 ± 17.10 | 54.19 ± 12.80 | 48.12 ± 12.85 | 43.52 ± 11.16 | 52.09 ± 14.91 | 48.81 ± 12.46 | 4858.62 ± 10.62 | 0.432 ± 0.103 | 13.08 ± 3.66 | 15.27 ± 0.11 | 50.92 ± 13.97 | 758.32 ± 15.18 | 18.12 | 675.25 ± 11.93 | 27.09 | 60.49 ± 18.05 | 42.39 ± 12.65 | 546.79 ± 14.12 | 40.96 | Cell nuclei count ([13]; 50 μg intravitreal for 1 week from day 7, vascular endothelial nuclei per slice): 8.786 ± 3.072 |
| mPEG2-NHS20k-Arg-Gly-Ala-Asp-Arg-Ala-Gly-Gly-Gly-Gly-Arg-Gly-Asp ({mPEG2‑NHS 20 kDa}-RGADRAGGGGRGD) [mPEG2-NHS20k-HM-1] | 50.82 ± 12.68 | 60.63 ± 19.39 | 55.03 ± 14.19 | 50.79 ± 14.37 | 46.18 ± 11.22 | 55.20 ± 15.43 | 55.38 ± 16.23 | 4682.53 ± 15.01 | 0.218 ± 0.17 | 18.16 ± 10.22 | 22.38 ± 0.34 | 52.68 ± 17.25 |  |  | 759.06 ± 16.96 | 18.04 | 65.99 ± 22.07 | 47.75 ± 10.14 | 655.24 ± 18.59 | 29.25 | IL-1β ([10]; 80 μg/mL): 552.35 ± 10.50 pg/mL; Inhibition Rate of IL-1β production ([10]; 80 μg/mL): 40.36%; Cell nuclei count ([13]; 100 μg intravitreal for 1 week from day 7, vascular endothelial nuclei per slice): 7.683 ± 2.914 |
| mPEG2-NHS40k-Arg-Gly-Ala-Asp-Arg-Ala-Gly-Gly-Gly-Gly-Arg-Gly-Asp ({mPEG2‑NHS 40 kDa}-RGADRAGGGGRGD) [mPEG2-NHS40k-HM-1] | 49.39 ± 16.55 | 57.33 ± 14.28 | 53.77 ± 13.64 | 48.65 ± 12.64 | 40.36 ± 10.53 | 58.73 ± 14.31 | 50.64 ± 15.89 | 4579.47 ± 13.52 | 0.11 ± 0.0883 | 15.27 ± 9.37 | 42.25 ± 0.27 | 49.12 ± 16.19 |  |  |  |  | 62.25 ± 20.39 | 45.91 ± 11.74 | 756.84 ± 15.32 | 18.28 | IL-1β ([10]; 80 μg/mL): 673.30 ± 16.71 pg/mL; Inhibition Rate of IL-1β production ([10]; 80 μg/mL): 27.30%; IL-1β ([10]; 160 μg/mL): 568.00 ± 10.82 pg/mL; Inhibition Rate of IL-1β production ([10]; 160 μg/mL): 38.67%; Cell nuclei count ([13]; 200 μg intravitreal for 1 week from day 7, vascular endothelial nuclei per slice): 8.495 ± 3.036 |
| mPEG-ALD5k-Arg-Gly-Ala-Asp-Arg-Ala-Gly-Gly-Gly-Gly-Arg-Gly-Asp ({mPEG‑ALD 5 kDa}-RGADRAGGGGRGD) [mPEG-ALD5k-HM-1] | 45.76 ± 13.20 | 61.12 ± 18.39 | 52.98 ± 11.55 | 44.63 ± 10.86 | 40.71 ± 11.33 | 55.43 ± 14.04 | 43.89 ± 14.14 | 4986.29 ± 10.16 | 0.843 ± 0.157 | 8.15 ± 4.21 | 9.13 ± 0.11 | 49.22 ± 11.87 | 654.50 ± 18.43 | 28.62 | 516.13 ± 10.95 | 43.71 | 65.99 ± 17.72 | 38.47 ± 11.52 |  |  | IL-1β ([10]; 5 μg/mL): 734.73 ± 16.59 pg/mL; Inhibition Rate of IL-1β production ([10]; 5 μg/mL): 19.87%; Cell nuclei count [13, 14]: 8.927 ± 2.902 |
